From article PMC11061149, “Protein mimetic 2D FAST rescues alpha synuclein aggregation mediated early and post disease Parkinson’s phenotypes” (Nature Communications, 2024)
“And” between values parts separate entries of the source, which are not always exact repeats. Equal values may be shown once. Blank lines part the entries; values can stand above or below the compound they belong to.

Key:
Type in all cases: biochemical
αS fibers = target: T1, αS fibers (Homo sapiens, UniProt P37840); experiment: Transmission electron microscopy (TEM) of αS solutions; conditions: 100 µM αS aggregated for four days with ligand
T1 construct: made in house; host or cells: E. coli BL21(DE3)
Protocol: Transmission Electron Microscopy was used to visualize protein assemblies after aggregation experiments as previously described. Briefly, aliquots (5 μL) of αS solutions (with or without ligands) were applied on glow-discharged carbon-coated 300-mesh copper grids for 2 min and dried using Kimwipes (Kimberly-Clark, Irving, TX). The copper grids were negatively stained for 1 min with uranyl acetate (0.75%, w/v). The micrographs were taken on an FEI Tecnai G2 Biotwin TEM at 80 kV accelerating voltages.

[1] = target: T2, α-Synuclein (αS) aggregation (Homo sapiens, UniProt P37840); experiment: Thioflavin T (ThT) dye-based αS aggregation assay (de novo); conditions: for ThT intensity relative to Synuclein alone (=1), Average / ThT intensity relative to Synuclein alone (=1), Trial 1-3: 100 µM αS, four days; for remaining activity at 100 µM: 96 h, pH 6.5, 100 μM αS, 1×PBS pH 6.5, four days, ligand:αS equimolar, read-out: ThT signal/intensity relative to αS alone (100%)
T2 construct: made in house; host or cells: E. coli BL21(DE3)
Protocol: We used a 2D FAST approach in OPs to identify potent antagonists of the aggregation of αS. In this approach, we start with a library of monopyridyls with different functional groups. The library of monopyridyls was synthesized using 2-chloro-6-methyl-3-nitropyridine as a common precursor, which was treated with primary alcohols with diverse side chain functionalities via a one-pot reaction (Fig. 1B, a and see Supplementary information for synthetic details). […] We selected the side chains containing hydrophobic, polar, positively charged, and negatively charged functional groups, which mimic the side chains of the amino acids (Fig. 1C). […] The monopyridyl library was screened against the aggregation of 100 μM αS at an equimolar ratio using Thioflavin T (ThT) dye-based aggregation assay (Fig. 1B, b). […] The chloro-dipyridyl was reacted with a library of primary amines/thiols to synthesize a library of dipyridyls (Fig. 1B, e) using a one-pot reaction. […] However, a few dipyridyls required column chromatography to separate them from the starting material side chains because of their very high boiling point (7 out of 21 dipyridyls required column, Supplementary Fig. 1). […]
Aggregation Kinetics were measured according to a previously described protocol. […] The solutions were placed in a ThermoMixer (Eppendorf, Hamberg, Germany) at 37 °C with constant shaking at 1300 rpm (rpm). At different time points, 5 μL aliquots of each αS solution were added to 95 μL PBS containing 50 μM Thioflavin T (ThT) dye in a Costar black 96 well plate (Corning Inc., Kennebunk, ME). ThT fluorescence intensity was measured (λex = 450 nm and λem = 490 nm) on an Infinite M200PRO plate reader (Tecan, Männedorf, Switzerland), and plotted against time to give a sigmoidal curve typical of amyloid aggregation. For the single point ThT aggregation, 100 μM αS, in the absence and presence of ligands, was aggregated under the described conditions and the ThT fluorescence was reported at 96 h. The reported ThT intensity values are the average of each experiment conducted in triplicate, with the error bars representing the standard deviations or standard error of the mean (s.e.m.) as described in the main manuscript.

αS aggregation = target: T3, αS aggregation (Homo sapiens, UniProt P37840); experiment: SDS-PAGE gel shift assay of soluble and insoluble αS fractions; conditions: for αS band intensity, Total: individual trials
T3 construct: made in house; host or cells: E. coli BL21(DE3)
Text: The inhibition of αS aggregation by NS41 was also confirmed by TEM images, which show an abundance (Supplementary Fig. 3a) and low amount (Supplementary Fig. 3b) of αS fibers in the absence and presence of NS41, respectively. We used SDS-PAGE (Sodium dodecyl sulfate polyacrylamide gel electrophoresis) as a complementary assay to validate ThT results and to further characterize the antagonist activity of the monopyridyls against αS aggregation. We used a total of four monopyridyls with varying antagonist activity against αS aggregation for the SDS-PAGE assay. The solutions of αS (±monopyridyls) were centrifuged and the soluble and insoluble fractions were subjected to SDS-PAGE analysis as reported earlier (Fig. 2d, Supplementary Fig. 4a, see details in methods section). The band intensities of the gels in SDS-PAGE assay were quantified using ImageJ software. In the absence of ligands, ~12% of αS was found in the soluble fraction and the rest was found in the insoluble fraction (Fig. 2d, Supplementary Fig. 4a, b). In the presence of NS41 at molar ratios of 1:1 and 2:1 (NS41:αS), 48% and 73% of αS protein were found in the soluble fraction, respectively, and the rest of αS protein was found in the insoluble fraction (Fig. 2d, Supplementary Fig. 4a, b). […] The antagonist activity of the monopyridyls corroborated well from both ThT and the SDS-PAGE assays (Fig. 2a–d, Supplementary Fig. 4a, b). The higher the antagonist activity of monopyridyls against αS aggregation, the lower the ThT intensity and the higher the amount of αS remained in the soluble fraction (Fig. 2a–d, Supplementary Fig. 4a, b). […] It is important to note that NS41 contains a carboxyl (COOH) functional group side chain. […] We have also shown in that work that the foldamer binds to the N-terminus of αS because of its negatively charged COOH functional group interaction with the positively charged lysine residues of αS[24]. […] Additionally, we have also shown that the OPs with the COOH functional group are very effective inhibitors of aggregation of other amyloid proteins that contain lysine amino acid via the formation of salt bridges[30]–[34].
An αS solution (100 µM) was prepared in PBS with or without ligands and shaken ([…], 37 °C) until the fluorescence plateaued, as observed using the ThT aggregation assay, indicative of the aggregation of αS as a control (four days for most experiments unless otherwise mentioned). The solutions were separated into soluble and insoluble fractions by centrifugation at 22,000 × g for 20 min. The fractions were diluted in 2×Laemmli protein sample loading buffer (Containing 2.1% SDS, Bio-rad, Hercules, CA), boiled at 95 °C for 5 min, and ran on a 12% Mini-PROTEAN precast protein gel (Bio-rad, Hercules, CA). The gel was visualized using ChemiDoc MP Imaging System (Bio-rad, Hercules, CA) and band intensity was quantified using Image Lab image acquisition and analysis software (Bio-rad, Hercules, CA). Densitometry values were averaged from three technical replicates and reported with the error bars representing their standard deviations.

αS fibers seen in TEM images, in words (αS fibers): low amount | ThT signal relative to αS alone (100%) ([1]; 100 μM αS, 1×PBS pH 6.5, NS41/αS 2:1): 17% | ThT intensity relative to Synuclein alone (=1), Average ([1]; equimolar): 0.2889 | ThT intensity relative to Synuclein alone (=1), Trial 1-3 ([1]; equimolar, individual trials): 0.2946 and 0.2756 and 0.2964 | ThT intensity relative to Synuclein alone (=1), Average ([1]; ligand 2 mole Eq.): 0.162 | ThT intensity relative to Synuclein alone (=1), Trial 1-3 ([1]; ligand 2 mole Eq., individual trials): 0.1784 and 0.1666 and 0.1411 | remaining activity at 100 µM [1]: 29% | αS protein found in the soluble fraction (αS aggregation; 100 µM αS, four days, NS41:αS 2:1): 73% | αS protein found in the soluble fraction (αS aggregation; 100 µM αS, four days, ligand:αS 1:1): 48% | αS band intensity, Total, Average (αS aggregation; sheet S4B, ligand 1 eq.): 100 | αS band intensity, Total (αS aggregation; sheet S4B, ligand 1 eq.): 95 and 102.5 (2×) | αS band intensity, Total, Average (αS aggregation; sheet S4B, ligand 2 eq.): 100 | αS band intensity, Total (αS aggregation; sheet S4B, ligand 2 eq.): 96 and 102 (2×)
Compound: Cc1ccc([N+](=O)[O-])c(OCC(=O)O)n1 [NS41]

αS fibers seen in TEM images, in words (αS fibers): no | ThT fluorescence intensity, Average ([1]; 100 µM αS + equimolar ligand, aggregation profile Fig. 2h, time 0 hr): 638.333 | attenuation of the ThT signal of αS aggregation ([1]; 100 μM αS, equimolar): 96% | ThT intensity relative to Synuclein alone (=1), Average ([1]; equimolar): 0.04101 | ThT intensity relative to Synuclein alone (=1), Trial 1-3 ([1]; equimolar, individual trials): 0.05227 and 0.03887 and 0.03187 | ThT intensity relative to Synuclein alone (=1), Average ([1]; substoichiometric αS:ligand 1:0.5): 0.7474 | ThT intensity relative to Synuclein alone (=1), Trial 1-3 ([1]; substoichiometric αS:ligand 1:0.5, individual trials): 0.775 and 0.733 and 0.7343 | remaining activity at 100 µM [1]: 4% | ThT fluorescence intensity, Average ([1]; Fig. 2h profile, time 12 hr): 699.667 | ThT fluorescence intensity, Average ([1]; Fig. 2h profile, time 24 hr): 689.333 | ThT fluorescence intensity, Average ([1]; Fig. 2h profile, time 48 hr): 722.667 | ThT fluorescence intensity, Average ([1]; Fig. 2h profile, time 72 hr): 793 | ThT fluorescence intensity, Average ([1]; Fig. 2h profile, time 96 hr): 631.333 | ThT fluorescence intensity, Average ([1]; Fig. 2h profile, time 144 hr): 658.333 | ThT fluorescence intensity, Average ([1]; Fig. 2h profile, time 192 hr): 603.333 | ThT fluorescence intensity, Average ([1]; Fig. 2h profile, time 300 hr): 570.333 | Relative ThT intensity of αS aggregation, Average ([1]; sheet S5A, Synuclein alone about 1): 0.04101 | Relative ThT intensity of αS aggregation ([1]; sheet S5A, Synuclein alone about 1, individual trials): 0.05227 and 0.03887 and 0.03187 | amount of αS in the insoluble fraction (αS aggregation; 100 µM αS, four days, equimolar): 26% | αS band intensity, Total, Average (αS aggregation; sheet S5B): 100 | αS band intensity, Total (αS aggregation; sheet S5B): 95.6 and 105.4 and 99
Compound: Cc1ccc(NC(=O)c2ccc([N+](=O)[O-])c(NCC3CCCCC3)n2)c(OCC(=O)O)n1 [NS55]
distribution of αS between soluble and insoluble fraction, in words (αS aggregation; substoichiometric ratio αS:ligand 1:0.5): a significant amount of αS protein was found in the insoluble form
